US11266667B2, “ABX196 for use in the treatment of bladder cancer” (ABIVAX, priority 2017, dated 2022)

Tested on: MBT-2 tumors
Experiment: Anti-tumoral activity in MBT-2 syngeneic ectotopic (subcutaneous) tumor model
Format: in vivo, mouse
Set-up: key to Statistical significance for tumor growth versus Anti-PD-1: p value < 0.05*; ns: Ns: non significant
Experimental: The aim of this study is to determine the anti-tumoral activity of ABX196 or of anti-PD-1 antibody, administered systemically alone, in MBT2 syngeneic ectotopic models and in particular, to evaluate the capacity of these agents to treat established sub-cutaneous tumors.
Anti-PD-1 antibody (ref.: BE0146, BioXcell; clone: RMP1-14, reactivity: mouse; isotype: Rat IgG2a; storage conditions: +4° C.). Anti-PD-1 antibody is prepared in phosphate buffered saline (PBS) or other suitable vehicle according to manufacturer's recommendation. The anti-PD-1 antibody is administered at the dose of 10 mg/kg. Anti-PD-1 antibody is injected into the peritoneal cavity of mice (Intraperitoneally, IP). Anti-PD-1 antibody is administered at a dose volume of 10 mL/kg/adm.
ABX196 is provided as a solution at […] and is administered at the dose of 100 ng per mouse. ABX196 is injected by the intravenous route in the caudal vein of mice (IV, bolus). ABX196 is administered at a fixed dose volume of 100 μL (i.e. approximately 5 mL/kg/adm. for one mouse weighing 20 g).
Tumor cells are grown as monolayer at 37° C. in a humidified atmosphere (5% CO2, 95% air). The culture medium is RPMI 1640 containing 2 mM L-glutamine (ref: BE12-702F, Lonza, Verviers, Belgium) supplemented with 10% fetal bovine serum (ref: 3302, Lonza). Tumor cells are adherent to plastic flasks. For experimental use, tumor cells are detached from the culture flask by a 5-minutes treatment with trypsin-versene (ref: BE02-007E, Lonza), in Hanks' medium without calcium or magnesium (ref: BE10-543F, Lonza) and neutralized by addition of complete culture medium.
68 (sixty-eight) healthy female C3H/HeJ (C3H/HeOuJ) mice, 6-7 weeks old, are obtained from The Jackson Laboratory (Bar Harbor, Me.) for the MBT-2 model.
MBT-2 tumors are induced by subcutaneous injection of 1×10^6 cells in 200 μL of RPMI 1640 into the right flank of the sixty-eight female animals.
The treatment starts when the tumors reach a mean volume of 80-120 mm^3 (day 13 in this experiment). The sixty-eight mice for the MBT-2 model are randomized according to their individual tumor volume into 4 groups each (one not shown) of 12 animals using Vivo Manager® software (Biosystemes, Couternon, France). A statistical test (analysis of variance, ANOVA) is performed to test for homogeneity between groups. The treatment schedule was chosen as follows:
Animals from group 1 receive an IV injection of ABX196 vehicle and an IP injection of anti-PD-1 antibody vehicle,
Animals from group 2 receive an IV injection of 100 ng of ABX196,
Animals from group 3 receive twice weekly administrations of anti-PD-1 antibody,
Tumor growth inhibition (T/C) is defined as the ratio of the median tumor volumes of treated versus control group. The optimal value is the minimal T/C ratio reflecting the maximal tumor growth inhibition achieved.

[1] = day 20, one way ANOVA, pair wise Bonferroni's multiple comparison test

## CCCCCCCCCCCCCCCCCCCCCCCC(=O)N[C@@H](CO[C@H]1O[C@H](CNC(C)=O)[C@H](O)[C@H](O)[C@H]1O)[C@H](O)[C@H](O)CCCCCCCCCCCCCC [ABX196]
C3H/HeJ mice with subcutaneous MBT-2 tumors, day 23 after tumor induction, ABX196 100 ng IV Q1Dx1, anti-PD-1 10 mg/kg IP TWx2
  T/C (%) (tumor growth inhibition, ratio of median tumor volumes of treated versus control group): 54%
[1]
  Statistical significance for tumor growth versus Anti-PD-1: ns
  Statistical significance for tumor growth versus Vehicle: * (p value < 0.05*)
Subcutaneous MBT-2 tumors, ABX196 100 ng IV Q1Dx1
  Mean tumor volume in function of time after tumor induction (FIG. 1), compared with anti-PD-1 antibodies: reduces more efficiently the tumor volume than anti-PD-1 antibodies
Subcutaneous MBT-2 tumors, day 23, ABX196 100 ng IV Q1Dx1
  Tumor growth inhibition (FIG. 2), compared with anti-PD-1 antibodies: inhibits more efficiently the tumor growth than anti-PD-1 antibodies
